Experimental data reported in US20200017496A1 (priority 2017, published 2020).

Tests used:
Assay in all cases: MIC of compounds alone and combined with antibacterials, broth microdilution (CLSI)
Format in all cases: cell-based
[1] = test system: Providencia rettgeri (PRE) isolates
Method in brief: (§1)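 Inoculum 5·10^5 CFU/mL (final), log phase, ca-MHB; 16-20 h, 35° C, ambient air. MIC = lowest conc. with no visible growth; ATB MIC read at each compound level.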

[2] = test system: Salmonella typhimurium (STY) isolates; details: STY S3371; AF1 @ 4 μg/mL
Method in brief: as §1

[3] = test system: Enterobacter cloacae (ECL) isolates
Method in brief: as §1

[4] = test system: Citrobacter koseri (CKR) isolates; details: AF1 @ 4 μg/mL
Method in brief: as §1

[5] = test system: Klebsiella oxytoca (KOX) isolates; details: AF1 @ 4 μg/mL
Method in brief: as §1

[6] = test system: Serratia marcescens (SMA) isolates
Method in brief: as §1

## COCC1=C(C(=O)O)N2C(=O)[C@@H](NC(=O)/C(=N\OC)c3csc(N)n3)[C@H]2SC1 [POD, Cefpodoxime]
[1]; PRE UFR99, AF1 @ 4 μg/mL
  MIC ATB in combination: >128 µg/mL
[1]; strain PRE UFR236, antibacterial combined with AF1 @ 4 μg/mL
  MIC ATB in combination: 1 µg/mL
[2]
  MIC ATB in combination: <=0.25 μg/mL
[3]; ECL 2185D, AF1 @ 4 μg/mL
  MIC ATB in combination: >128 µg/mL
[3]; ECL 190310, AF1 @ 4 μg/mL
  MIC ATB in combination: 64 µg/mL
[3]; ECL 190408, AF1 @ 4 μg/mL
  MIC ATB in combination: <=0.25 μg/mL
[3]; ECL 200138, AF1 @ 4 μg/mL
  MIC ATB in combination: 32 µg/mL
[3]; ECL 200322, AF1 @ 4 μg/mL
  MIC ATB in combination: 1 µg/mL
[3]; ECL 260033, AF1 @ 4 μg/mL
  MIC ATB in combination: 128 µg/mL
[3]; ECL 260253, AF1 @ 4 μg/mL
  MIC ATB in combination: 8 µg/mL
[3]; ECL 260323, AF1 @ 4 μg/mL
  MIC ATB in combination: 32 µg/mL
[3]; ECL 260508, AF1 @ 4 μg/mL
  MIC ATB in combination: 1 µg/mL
[3]; ECL NEM146383, AF1 @ 4 μg/mL
  MIC ATB in combination: 16 µg/mL
[3]; ECL P99, AF1 @ 4 μg/mL
  MIC ATB in combination: 16 µg/mL
[3]; ECL UFR12, AF1 @ 4 μg/mL
  MIC ATB in combination: 1 µg/mL
[3]; ECL UFR13, AF1 @ 4 μg/mL
  MIC ATB in combination: 8 µg/mL
[3]; ECL UFR14, AF1 @ 4 μg/mL
  MIC ATB in combination: 8 µg/mL
[3]; ECL UFR60, AF1 @ 4 μg/mL
  MIC ATB in combination: 1 µg/mL
[3]; ECL UFR70, AF1 @ 4 μg/mL
  MIC ATB in combination: 8 µg/mL
[3]; ECL UFR84, AF1 @ 4 μg/mL
  MIC ATB in combination: 32 µg/mL
[3]; ECL UFR85, AF1 @ 4 μg/mL
  MIC ATB in combination: 4 µg/mL
[3]; ECL UFR194, AF1 @ 4 μg/mL
  MIC ATB in combination: 1 µg/mL
[3]; ECL UFR200, AF1 @ 4 μg/mL
  MIC ATB in combination: 1 µg/mL
[3]; strain ECL UFR195, antibacterial combined with AF1 @ 4 μg/mL
  MIC ATB in combination: 1 µg/mL
[3]; strain ECL UFR196, antibacterial combined with AF1 @ 4 μg/mL
  MIC ATB in combination: 2 µg/mL
[3]; strain ECL UFR197, antibacterial combined with AF1 @ 4 μg/mL
  MIC ATB in combination: 8 µg/mL
[3]; strain ECL UFR198, antibacterial combined with AF1 @ 4 μg/mL
  MIC ATB in combination: 8 µg/mL
[4]; CKO ROU
  MIC ATB in combination: 2 µg/mL
[4]; CKO UFR149
  MIC ATB in combination: 8 µg/mL
[4]; CKO UFR150
  MIC ATB in combination: 8 µg/mL
[5]; KOX UFR21
  MIC ATB in combination: 1 µg/mL
[5]; KOX UFR173
  MIC ATB in combination: 0.5 µg/mL
[5]; KOX UFR223
  MIC ATB in combination: <=0.25 μg/mL
[5]; KOX UFR224
  MIC ATB in combination: <=0.25 μg/mL
[6]; SMA UFR30, AF1 @ 4 μg/mL
  MIC ATB in combination: 0.5 µg/mL
[6]; SMA UFR134, AF1 @ 4 μg/mL
  MIC ATB in combination: 2 µg/mL
[6]; SMA UFR135, AF1 @ 4 μg/mL
  MIC ATB in combination: 4 µg/mL
[6]; SMA UFR136, AF1 @ 4 μg/mL
  MIC ATB in combination: 8 µg/mL
[6]; SMA UFR137, AF1 @ 4 μg/mL
  MIC ATB in combination: 0.5 µg/mL
[6]; SMA UFR138, AF1 @ 4 μg/mL
  MIC ATB in combination: 0.5 µg/mL
[6]; SMA UFR139, AF1 @ 4 μg/mL
  MIC ATB in combination: 2 µg/mL
[6]; SMA UFR141, AF1 @ 4 μg/mL
  MIC ATB in combination: 2 µg/mL
[6]; SMA UFR142, AF1 @ 4 μg/mL
  MIC ATB in combination: 1 µg/mL
[6]; SMA UFR143, AF1 @ 4 μg/mL
  MIC ATB in combination: 1 µg/mL
[6]; SMA UFR239, AF1 @ 4 μg/mL
  MIC ATB in combination: 2 µg/mL
[6]; strain SMA UFR238, antibacterial combined with AF1 @ 4 μg/mL
  MIC ATB in combination: 2 µg/mL
